These results are taken from paper PMC5786306, “An AKAP-Lbc-RhoA interaction inhibitor promotes the translocation of aquaporin-2 to the plasma membrane of renal collecting duct principal cells” (PLoS ONE, 2018).

One may read the Kd as the free concentration of one partner at which half of the binding sites on the other are occupied at equilibrium, for simple one-to-one binding. High values mean weaker binding, low ones tighter binding.

Where “and” joins values, the source holds several entries; their conditions need not be identical. Equal entries are not always repeated.

The target in experiment [1] is T1, 647-RhoA (Homo sapiens, UniProt P61586).
T1 construct: made in house
T1 sequence (P61586 whole entry): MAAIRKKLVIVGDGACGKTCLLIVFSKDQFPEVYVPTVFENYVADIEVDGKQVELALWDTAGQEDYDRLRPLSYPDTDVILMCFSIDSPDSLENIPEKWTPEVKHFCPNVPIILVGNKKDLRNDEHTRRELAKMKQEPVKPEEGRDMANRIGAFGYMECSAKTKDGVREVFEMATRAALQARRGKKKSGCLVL
Put plainly: Microscale thermophoresis (MST) with 647-RhoA. Type of experiment: binding. On the procedure:
(§1) The final concentration of GFP-AKAP-Lbc/DHPH was set to 150 nM, 95% LED and 80% MST laser power. […] The samples were incubated in the dark for 1 h incubation at room temperature, and measured with 30 sec laser-on and 5 sec laser-off time at a Monolith NT.115 device (NanoTemper). Measured fluorescence (F) was normalised (Fhot/Fcold = Fsteady state/Finitial state, Fig 3). Values of thermophoresis + T-jump were related to average of each measurement row (16 capillaries). Final values are given as ‰.
(§2) Fig 4 The Scaff10 derivative Scaff10-8 binds to RhoA but not to the DHPH domain of AKAP-Lbc. (A-D) Microscale thermophoresis (MST) takes advantage of the phenomenon of directed movement of particles in a temperature gradient. Binding events lead to changes in the hydration shell of biomolecules and a relative change of movement of the molecular complex along a temperature gradient. Using such changes, binding affinities can be determined. MST assays were carried out with (A) the recombinant DHPH domain of AKAP-Lbc fused with GFP and RhoA as a ligand and (B) fluorescent 647-RhoA and the His-tagged AKAP-Lbc/DHPH domain as a ligand. (C) MST assays for the analysis of the binding of Scaff10-8 to 647-RhoA. Upper panels: The concentration of fluorescent 647-RhoA remained constant and Scaff10-8 (left) and Scaff10-7 as a negative control (right) were titrated in increasing concentrations. Lower panels: Values of fluorescence corresponding to upper panels. (D) MST assay showing no binding of Scaff10-8 or Scaff10-7 to GFP-DHPH. Upper panels: The concentration of fluorescent GFP-AKAP-Lbc/DHPH remained constant and Scaff10-8 (left) and Scaff10-7 (right) were titrated in increasing concentrations. Lower panels: Values of fluorescence corresponding to upper panels. […] F norm = normalized fluorescence (fluorescence steady state/fluorescence initial state) indicated in ‰. n = 3–5. Mean ± SEM. […] The ligand protein named in each panel heading is used as the substance label, and it is uncertain whether these count as substances.
(In general: Microscale thermophoresis detects binding through changes in fluorescence in a small temperature gradient.)

The target in experiment [2] is T2, GFP-AKAP-Lbc/DHPH (Homo sapiens, UniProt Q12802).
T2 construct: His6-AKAP-Lbc/DHPH (aa 1972–2342 of human AKAP-Lbc; NP_006729.4); made in house; host or cells: HEK293-EBNA cells (transient transfection, pTT5)
T2 sequence (Q12802 1972-2342 isoform Q12802-2): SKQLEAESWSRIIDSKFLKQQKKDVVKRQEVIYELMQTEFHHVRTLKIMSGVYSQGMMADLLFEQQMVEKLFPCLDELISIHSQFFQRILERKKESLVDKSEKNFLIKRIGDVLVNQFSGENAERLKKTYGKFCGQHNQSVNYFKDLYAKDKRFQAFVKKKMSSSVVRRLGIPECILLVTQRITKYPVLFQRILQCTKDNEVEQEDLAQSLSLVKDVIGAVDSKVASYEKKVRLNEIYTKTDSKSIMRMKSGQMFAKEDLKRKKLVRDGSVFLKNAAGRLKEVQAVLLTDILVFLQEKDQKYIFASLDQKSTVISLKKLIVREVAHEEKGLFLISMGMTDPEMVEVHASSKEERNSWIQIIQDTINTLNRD
Put plainly: Microscale thermophoresis (MST) with GFP-AKAP-Lbc/DHPH. The format is binding. To be noted: result in words. On the procedure:
as §1, §2

Experiment [3] concerns AQP2 localization in MCD4 cells. Put plainly: Immunofluorescence microscopy of AQP2 in MCD4 cells. The format is cell-based, mouse. The settings on record: 30 μM.
Experiment [4] deals with T3, GST-RhoA (F25N), GDP- or GTPγS-bound (Homo sapiens, UniProt P61586, F25N).
T3 construct: made in house
T3 sequence (P61586 whole entry F25N): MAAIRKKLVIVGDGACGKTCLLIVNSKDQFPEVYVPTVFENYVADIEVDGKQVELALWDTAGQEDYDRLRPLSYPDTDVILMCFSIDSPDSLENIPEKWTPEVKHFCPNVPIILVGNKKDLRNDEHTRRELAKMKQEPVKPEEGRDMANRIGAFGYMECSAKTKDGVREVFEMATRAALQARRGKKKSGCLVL
Put plainly: Isothermal titration calorimetry (ITC) with GST-RhoA. Type of experiment: binding. On the procedure:
ITC measurements were essentially carried out as previously described. The stabilizing RhoA mutant F25N [41] was purified as a GST-RhoA fusion in its GDP-bound form (final gel filtration purification step in 20 mM HEPES, pH 7.5, 150 mM NaCl, 2 mM DTT, 50 μM GDP). In order to exchange GDP against GTPγS, GST-RhoA loaded with GDP was incubated for 20 min in ITC nucleotide exchange buffer (50 mM HEPES, pH 7.5, 20 mM EDTA) at 25°C followed by three dilution and concentration steps in Amicon tubes (10,000 MWCO) using ITC dialysis buffer (50 mM HEPES, pH 7.4, 150 mM NaCl, 5 mM MgCl2, 2 mM β-mercaptoethanol). The nucleotide-loading state was confirmed by HPLC. All proteins used in ITC measurements were dialyzed overnight against ITC dialysis buffer. Protein concentrations were determined with NanoDrop ND-1000. GDP or GTPγS (final concentration 2 mM) and DMSO (2%) were added to the proteins prior to the ITC measurements. Scaff10-8 was dissolved in the same buffer (including 2% DMSO and 2 mM GDP or GTPγS). ITC measurements were performed on a VP-ITC (GE Healthcare, München, DE) at 15°C. Titrations were conducted using 14.8 μM Scaff10-8 in the cell and 235 μM (GST control), 222 μM (GST-RhoA, GDP-bound) or 210 μM (GST-RhoA, GTPγS-bound) in the syringe. The cell was stirred at 351 rpm and a total of 27 x 10 μl injections were added to the cell, separated by 240 s of equilibration. The data were fitted using the Microcal Origin software (version 7.0) and a one-site binding model. We consistently observed a binding number close to N = 0.5 (RhoA/Scaff10-8). This observation may be due to the binding of two molecules of Scaff10-8 per one molecule of GST-RhoA for both the GDP-bound and GTPγS-bound form of GST-RhoA, or due to some inaccuracy in the determination of protein or compound concentrations. The data were thus fitted using a fixed binding number of N = 0.5.
In general terms: In ITC the heat of successive injections is recorded.

`CCOC(=O)CCc1c(C)c2ccc(OCC(=O)c3ccc(OC)cc3)cc2oc1=O` [Scaff10-7, Ethyl 3-[7-[2-(4-methoxyphenyl)-2-oxo-ethoxy]-4-methyl-2-oxo-chromen-3-yl]propanoate]: the “binding to 647-RhoA” value in experiment [1] (result in words) is reported as “did not bind”. Also, in experiment [2], the “binding to GFP-AKAP-Lbc/DHPH” value was “no binding”. Also, the “localization of AQP2 in MCD4 cells” value in experiment [3] is “did not affect the location of AQP2”.

As to `COc1ccc(-c2coc3cc4oc(=O)c(CCC(=O)O)c(C)c4cc23)cc1` [Scaff10-8, 3-[3-(4-Methoxyphenyl)-5-methyl-7-oxo-furo[3,2-g]chromen-6-yl] propanoic acid], the dissociation constant Kd in experiment [1] (KD for binding to 647-RhoA, mean ± SEM, n = 3–5) is 20 µM and 20.2 µM. Further, the “binding to GFP-AKAP-Lbc/DHPH” value in experiment [2] is “no binding”. Further, the “KD for GST-RhoA loaded with GDP” value in experiment [4] (15°C, 2 mM GDP, fixed N = 0.5) amounted to 20 ± 1 µM. In addition, the “KD for GST-RhoA loaded with GTPγS” value in experiment [4] (15°C, 2 mM GTPγS, fixed N = 0.5) was found to be 38 ± 4 µM. Further, in experiment [4] (GDP- and GTPγS-bound forms), the “binding number N (RhoA/Scaff10-8)” value was roughly 0.5. The “localization of AQP2 in MCD4 cells” value in experiment [3] is reported as “induced cAMP-independently the translocation of AQP2 to the plasma membrane”.
